Laboratory results as given in patent publication US6683184B2, “Piperazine derivatives and process for the preparation thereof” (Samjin Pharmaceutical Co., Ltd., priority 1999, dated 2004).
Converted amounts (≈) assume the structure as drawn. Read-outs that look alike come from different tables or passages of the source.

Legend:
XF 498 (human CNS) = assay: In vitro antitumor effect against human tumor cell lines, SRB assay, XF 498; type: cell-based; settings: 48 hours; for IC50: Homo sapiens, XF498, XF-498 cells, read-out: ED50 XF-498
Procedure: (§1) In vitro antitumor effect against human tumor cell lines.
(§2) a. Human solid tumor cell lines, A549(non-small lung cell), SKMEL-2(melanoma), HCT-15(colon), SKOV-3(ovarian), XF-498(CNS) were cultured at 37° C. in 5% CO2 incubators using RPMI 1640 media containing 10% FBS, while they were transfer-cultured successively once or twice per week. Cell cultures were dissolved in a solution of 0.25% trypsin and 3 mM CDTA PBS(−) and then cells were separated from media which the cells were sticked on.
(§3) b. 5×10^3˜2×10^4 cells were added into each well of 96-well plate and cultured in 5% CO2 incubator, at 37° C., for 24 hours.
(§4) c. Each sample drug was dissolved in a little DMSO and diluted with the used medium to a prescribed concentration for experiments, wherein the final concentration of DMSO was controlled below 0.5%.
(§5) d. Medium of each well cultured for 24 hours as above b. was removed by aspiration. Each 200 μl of drug samples prepared in c. was added into each well and the wells were cultured for 48 hours. Tz(time zero) plates were collected at the point of time drugs were added.
(§6) e. According to the SRB assay method, cell fixing with TCA, staining with 0.4% SRB solution, washing with 1% acetic acid and elution of dye with 10 mM Tris solution were carried out on Tz plates and culture-ended plates, whereby OD values were measured at 520 nm.
(§7) a. Time zero(Tz) value was determined with measuring the SRB protein amounts of the Tz plates collected at the point of time drugs were added.
(§8) b. Control value(C) was determined with the OD values of wells untreated with a drug.
(§9) c. Drug-treated test value(T) was determined with the OD values of drug-treated wells.
(§10) d. Effects of drugs were estimated with growth stimulation, net growth inhibition, net killing etc., being calculated from Tz, C and T.
(§11) e. If T≧Tz, cellular response function was calculated by 100×(T−Tz)/(C−Tz), and if T<Tz, by 100×(T−Tz)/Tz.

[1] = Acute toxicity test (LD50), Litchfield-Wilcoxon method; type: in vivo; settings: mouse, in vivo, ICR mice, male, observed 14 days
[2] = test system: P388 (mouse lymphoid neoplasma cell); assay: In vitro antitumor effects against animal leukemia cells, dye exclusion assay; type: cell-based; settings: 48 hours, trypan blue dye exclusion, read-out: P388 (IC50, concentration showing 50% cell growth inhibition compared with the control)
Procedure: In vitro antitumor effects against animal leukemia cells.
Tumor cell line: P388 (mouse lymphoid neoplasma cell)
B. Method: Dye Exclusion Assay.
1) Concentrations of P388 cells being cultured in RPMI 1640 media containing 10% FBS were regulated to 1×10^6 cells/ml.
2) Sample drugs of respective concentrations diluted in the ratio of log doses were added into each cell culture and cultured at 37° C., for 48 hours, in […] incubator, and then viable cell numbers were measured by dye exclusion test using trypan blue.

HCT-15 (human colon) = assay: In vitro antitumor effect against human tumor cell lines, SRB assay, HCT-15; type: cell-based; settings: HCT 15 cells, 48 hours; for IC50: Homo sapiens, read-out: ED50 HCT 15
Procedure: as §1, §2, §3, §4, §5, §6, §7, §8, §9, §10, §11

[3] = test system: A549 (human non-small lung cell); assay: In vitro antitumor effect against human tumor cell lines, SRB assay, A549; type: cell-based; settings: A549 cells, 48 hours; for IC50: Homo sapiens, read-out: ED50 A 549
Procedure: as §1, §2, §3, §4, §5, §6, §7, §8, §9, §10, §11

SKOV-3 (human ovarian) = assay: In vitro antitumor effect against human tumor cell lines, SRB assay, SKOV-3; type: cell-based; settings: SK-OV-3 cells, 48 hours; for IC50: Homo sapiens, read-out: ED50 SK-OV-3
Procedure: as §1, §2, §3, §4, §5, §6, §7, §8, §9, §10, §11

SKMEL-2 (human melanoma) = assay: In vitro antitumor effect against human tumor cell lines, SRB assay, SKMEL-2; type: cell-based; settings: SK-MEL-2 cells, 48 hours; for IC50: Homo sapiens, read-out: ED50 SK-MEL-2
Procedure: as §1, §2, §3, §4, §5, §6, §7, §8, §9, §10, §11

ICR mice = assay: Acute toxicity test (LD50), Litchfield-Wilcoxon method; type: in vivo; settings: male, i.v., observed 14 days

SMILES | IC50 (XF 498 (human CNS)) [ng/mL] | IC50 [2] [ng/mL] | IC50 (HCT-15 (human colon)) [ng/mL] | IC50 [3] [ng/mL] | IC50 (SKOV-3 (human ovarian)) [ng/mL] | IC50 (SKMEL-2 (human melanoma)) [ng/mL] | LD50 at 14 days ([1]; iv, i.v., read-out: LD50 i.v.) [mg/kg] | LD50 at 14 days ([1]; po, p.o., read-out: LD50 p.o.) [mg/kg] | LD50 i.v. (ICR mice) [mg/kg] | ED50 XF-498 (XF 498 (human CNS); XF-498 cells) [ng/mL] | ED50 HCT 15 (HCT-15 (human colon)) [ng/mL] | ED50 A 549 [3] [ng/mL] | ED50 SK-OV-3 (SKOV-3 (human ovarian)) [ng/mL] | ED50 SK-MEL-2 (SKMEL-2 (human melanoma)) [ng/mL]
COc1nc(C)c(C)nc1NC(=O)N1CCN(c2cc(C)cc(C)c2)CC1 [Example 7, 1-[(5,6-Dimethyl-2-methoxypyrazin-3-yl)aminocarbonyl]-4-(3,5-dimethylphenyl)piperazine] | 2.7 (≈ 7.31 nM) | 20 (≈ 54.1 nM) | 2.8 (≈ 7.58 nM) | 2.4 (≈ 6.5 nM) | 7.2 (≈ 19.5 nM) | 2.3 (≈ 6.23 nM) | 75 |  |  |  |  |  |  | 
COc1cc(OC)cc(N2CCN(C(=O)Nc3nc4ccccc4nc3OC)CC2)c1 [Example 38, 1-[(2-Methoxyquinoxalin-3-yl)aminocarbonyl]-4-(3,5-dimethoxyphenyl)piperazine] | 0.11 (≈ 0.26 nM) | 10 (≈ 23.6 nM) | 0.13 (≈ 0.307 nM) | 0.03 (≈ 0.0708 nM) | 0.09 (≈ 0.213 nM) | 0.04 (≈ 0.0945 nM) | 97 | 410 |  |  |  |  |  | 
COc1nc(C)c(C)cc1N=C(NO)N1CCN(c2cccc(Br)c2)CC1 [Example 104, N-Hydroxy-N′-(5,6-dimethyl-2-methoxypyridin-3-yl)-[4-(3-bromophenyl)piperazin-1-yl]carboxyimidamide] |  |  |  |  |  |  |  |  | 212 |  |  |  |  | 
COc1cc(OC)cc(N2CCN(C(=O)N(C)c3nc(C)c(C)nc3OC)CC2)c1 [Example 19, 1-[(5,6-Dimethyl-2-methoxypyrazin-3-yl)N-methylaminocarbonyl]-4-(3,5-dimethoxyphenyl)piperazine] | 93 (≈ 224 nM) | 200 (≈ 481 nM) | 80 (≈ 193 nM) | 6.4 (≈ 15.4 nM) | 143 (≈ 344 nM) | 43 (≈ 103 nM) |  |  |  |  |  |  |  | 
COc1nc(C)c(C)nc1NC(=O)N1CCN(c2cc([N+](=O)[O-])cc([N+](=O)[O-])c2)CC1 [Example 15, 1-[(5,6-Dimethyl-2-methoxypyrazin-3-yl)aminocarbonyl]-4-(3,5-dinitrophenyl)piperazine] | 96 (≈ 223 nM) | 700 (≈ 1620 nM) | 71 (≈ 165 nM) | 79 (≈ 183 nM) | 184 (≈ 427 nM) | 38 (≈ 88.1 nM) |  |  |  |  |  |  |  | 
COc1cc(OC)cc(N2CCN(C(=O)Nc3nc(C)c(C)nc3OC)CC2)c1 [Example 3, 1-[(5,6-Dimethyl-2-methoxypyrazin-3-yl)aminocarbonyl]-4-(3,5-dimethoxyphenyl)piperazine] | 2.2 (≈ 5.48 nM) | 10 (≈ 24.9 nM) | 2 (≈ 4.98 nM) | 1.6 (≈ 3.99 nM) | 6.4 (≈ 15.9 nM) | 1.5 (≈ 3.74 nM) |  |  |  |  |  |  |  | 
COc1nc(C)c(C)cc1N=C(NO)N1CCN(c2cc(C)cc(C)c2)CC1 [Example 99, N-Hydroxy-N′-(5,6-dimethyl-2-methoxypyridin-3-yl)-[4-(3,5-dimethylphenyl)piperazin-1-yl]carboxyimidamide] |  |  |  |  |  |  |  |  | >200 | 10 (≈ 26.1 nM) | 3 (≈ 7.82 nM) | 12 (≈ 31.3 nM) | 8 (≈ 20.9 nM) | 6 (≈ 15.6 nM)
COc1nc2ccccc2nc1NC(=O)N1CCN(c2cc([N+](=O)[O-])cc([N+](=O)[O-])c2)CC1 [Example 48, 1-[(2-Methoxyquinoxalin-3-yl)aminocarbonyl]-4-(3,5-dinitrophenyl)piperazine] | 4 (≈ 8.82 nM) | 390 (≈ 860 nM) | 2 (≈ 4.41 nM) | 1 (≈ 2.21 nM) | 7 (≈ 15.4 nM) | 0.3 (≈ 0.662 nM) |  |  |  |  |  |  |  | 
COc1nc(C)c(C)nc1NC(=O)N1CCN(c2cc(F)cc(F)c2)CC1 [Example 12, 1-[(5,6-Dimethyl-2-methoxypyrazin-3-yl)aminocarbonyl]-4-(3,5-difluorophenyl)piperazine] | 17 (≈ 45 nM) | 100 (≈ 265 nM) | 1 (≈ 2.65 nM) | 8 (≈ 21.2 nM) | 69 (≈ 183 nM) | 8 (≈ 21.2 nM) |  |  |  |  |  |  |  | 

More lines, main results first:

IC50 (XF 498 (human CNS)) [ng/mL] | IC50 [2] [ng/mL] | IC50 (HCT-15 (human colon)) [ng/mL] | IC50 [3] [ng/mL] | IC50 (SKOV-3 (human ovarian)) [ng/mL] | IC50 (SKMEL-2 (human melanoma)) [ng/mL] | SMILES | LD50 at 14 days ([1]; iv, i.v., read-out: LD50 i.v.) [mg/kg] | LD50 at 14 days ([1]; po, p.o., read-out: LD50 p.o.) [mg/kg] | LD50 i.v. (ICR mice) [mg/kg] | ED50 XF-498 (XF 498 (human CNS); XF-498 cells) [ng/mL] | ED50 HCT 15 (HCT-15 (human colon)) [ng/mL] | ED50 A 549 [3] [ng/mL] | ED50 SK-OV-3 (SKOV-3 (human ovarian)) [ng/mL] | ED50 SK-MEL-2 (SKMEL-2 (human melanoma)) [ng/mL]
0.5 (≈ 1.3 nM) | 70 (≈ 182 nM) | 0.7 (≈ 1.82 nM) | 0.6 (≈ 1.56 nM) | 0.7 (≈ 1.82 nM) | < 0.1 | COc1nc(C)c(C)nc1NC(=S)N1CCN(c2cc(C)cc(C)c2)CC1 [Example 30, 1-[(5,6-Dimethyl-2-methoxypyrazin-3-yl)aminothiocarbonyl]-4-(3,5-dimethylphenyl)piperazine] |  |  |  |  |  |  |  | 
0.1 (≈ 0.24 nM) | 40 (≈ 95.8 nM) | 0.1 (≈ 0.24 nM) | 0.1 (≈ 0.24 nM) | 0.6 (≈ 1.44 nM) | < 0.1 | COc1cc(OC)cc(N2CCN(C(=S)Nc3nc(C)c(C)nc3OC)CC2)c1 [Example 28, 1-[(5,6-Dimethyl-2-methoxypyrazin-3-yl)aminothiocarbonyl]-4-(3,5-dimethoxyphenyl)piperazine] |  |  |  |  |  |  |  | 
97 (≈ 229 nM) | 800 (≈ 1890 nM) | 8 (≈ 18.9 nM) | 38 (≈ 89.6 nM) | 93 (≈ 219 nM) | 24 (≈ 56.6 nM) | COc1nc(C)c(C)nc1N(C)C(=O)N1CCN(c2cc(Cl)cc(Cl)c2)CC1 [Example 21, 1-[(5,6-Dimethyl-2-methoxypyrazin-3-yl)N-methylaminocarbonyl]-4-(3,5-dichlorophenyl)piperazine] |  |  |  |  |  |  |  | 
8 (≈ 19.6 nM) | 200 (≈ 491 nM) | 3 (≈ 7.36 nM) | 5 (≈ 12.3 nM) | 8 (≈ 19.6 nM) | 2 (≈ 4.91 nM) | COc1nc2ccccc2nc1NC(=S)N1CCN(c2cc(C)cc(C)c2)CC1 [Example 66, 1-[(2-Methoxyquinoxalin-3-yl)aminothiocarbonyl]-4-(3,5-di-methylphenyl)piperazine] |  |  |  |  |  |  |  | 
24 (≈ 59.2 nM) | 680 (≈ 1680 nM) | 28 (≈ 69.1 nM) | 2 (≈ 4.93 nM) | 38 (≈ 93.7 nM) | 3 (≈ 7.4 nM) | CCOc1nc2ccccc2nc1NC(=O)N1CCN(c2cc(C)cc(C)c2)CC1 [Example 74, 1-[(2-Ethoxyquinoxalin-3-yl)aminocarbonyl]-4-(3,5-dimethylphenyl)piperazine] |  |  |  |  |  |  |  | 
